# Reference: patent publication US10072003B2, “Tetrahydronaphthyridine derivatives as mGluR2-negative allosteric modulators, compositions, and their use” (Merck Sharp & Dohme Corp., priority 2014, dated 2018)
# Target: recombinant human mGluR2 (Homo sapiens (Human), UniProt Q14416)
# Assay: FLIPR Ca2+ mobilization antagonist assay in CHO dhfr- cells expressing human mGluR2 and Gα16
# Assay type: cell-based
# Conditions: antagonist response after addition of 2,500 nM glutamate, Fluo-4 AM, FLIPR384
# Method: Antagonist constants are determined as follows. The compounds of the invention were tested in a fluorescence laser imaging plate reader based assay. This assay is a common functional assay to monitor Ca2+ mobilization in whole cells expressing recombinant receptor coupled with a promiscuous G-protein. CHO dhfr-cells stably expressing recombinant human mGluR2 and Gα16 loaded with Fluo-4 AM (Invitrogen, Carlsbad Calif.) were treated with various concentrations of antagonists of compounds and the Ca2+ response was monitored on a FLIPR384 (Molecular Devices, Sunnydale Calif.) for agonist activity. Then 2,500 nM glutamate was added and the antagonist response was monitored. The maximum calcium response at each concentration of compound for agonist or antagonist were plotted as dose responses and the curves were fitted with a four parameter logistic equation giving IC50 and Hill coefficient using the iterative non linear curve fitting software ADA (Merck & Co). Data in the following table represent activities in the antagonist assay.
# recombinant human mGluR2, sequence (Q14416 19-872): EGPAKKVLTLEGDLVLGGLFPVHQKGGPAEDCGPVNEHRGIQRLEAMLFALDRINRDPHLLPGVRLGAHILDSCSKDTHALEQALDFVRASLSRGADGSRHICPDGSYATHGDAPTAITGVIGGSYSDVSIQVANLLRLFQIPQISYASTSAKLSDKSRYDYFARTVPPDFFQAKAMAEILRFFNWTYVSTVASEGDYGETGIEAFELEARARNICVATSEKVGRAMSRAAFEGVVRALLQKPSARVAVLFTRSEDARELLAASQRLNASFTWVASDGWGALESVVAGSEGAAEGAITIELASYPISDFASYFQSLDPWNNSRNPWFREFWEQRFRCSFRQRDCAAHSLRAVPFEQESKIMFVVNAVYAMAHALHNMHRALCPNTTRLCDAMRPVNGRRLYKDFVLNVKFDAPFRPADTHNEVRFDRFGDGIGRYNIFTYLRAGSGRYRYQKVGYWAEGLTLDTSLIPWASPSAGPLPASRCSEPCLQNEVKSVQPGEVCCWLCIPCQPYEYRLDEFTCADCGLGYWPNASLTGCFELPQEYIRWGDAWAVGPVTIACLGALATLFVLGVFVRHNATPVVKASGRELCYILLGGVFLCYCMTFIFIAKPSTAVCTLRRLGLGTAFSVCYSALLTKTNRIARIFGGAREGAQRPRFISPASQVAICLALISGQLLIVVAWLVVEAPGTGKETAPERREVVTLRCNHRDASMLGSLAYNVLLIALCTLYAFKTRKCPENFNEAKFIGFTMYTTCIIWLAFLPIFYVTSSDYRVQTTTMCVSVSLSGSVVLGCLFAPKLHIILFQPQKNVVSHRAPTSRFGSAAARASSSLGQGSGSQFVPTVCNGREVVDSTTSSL
row,Structure (SMILES),IC50
1,"CC1(C)CC(CN2CCc3c(-c4ccc(F)cc4F)cc(C(N)=O)nc3C2(C)C)CCO1 (racemic) [Example 1-23A, (R) and (S)-4-(2,4-difluorophenyl)-7-((2,2-dimethyltetrahydro-2H-pyran-4-yl)methyl)-8,8-dimethyl-5,6,7,8-tetrahydro-1,7-naphthyridine-2-carboxamide]",14.7 nM
2,"CC1(C)CC(CN2CCc3c(-c4ccc(F)cc4F)cc(C(N)=O)nc3C2(C)C)CCO1 (racemic) [Example 1-23B, (R) and (S)-4-(2,4-difluorophenyl)-7-((2,2-dimethyltetrahydro-2H-pyran-4-yl)methyl)-8,8-dimethyl-5,6,7,8-tetrahydro-1,7-naphthyridine-2-carboxamide]",28.5 nM
3,"NC(=O)c1cc(-c2ccc(F)cc2F)c2c(n1)CN(CC(O)c1ccccc1)CC2 (racemic) [Example 8-1A, (S) and (R)-4-(2,4-difluorophenyl)-7-(2-hydroxy-2-phenylethyl)-5,6,7,8-tetrahydro-1,7-naphthyridine-2-carboxamide]",18.5 nM
4,"NC(=O)c1cc(-c2ccc(F)cc2F)c2c(n1)CN(CC(O)c1ccccc1)CC2 (racemic) [Example 8-1B, (S) and (R)-4-(2,4-difluorophenyl)-7-(2-hydroxy-2-phenylethyl)-5,6,7,8-tetrahydro-1,7-naphthyridine-2-carboxamide]",12.7 nM
5,"NC(=O)c1cc(-c2ccc(F)cc2F)c2c(n1)CN(C(CO)c1ccccc1)CC2 (racemic) [Example 8-2A, (S) and (R)-4-(2,4-difluorophenyl)-7-(2-hydroxy-1-phenylethyl)-5,6,7,8-tetrahydro-1,7-naphthyridine-2-carboxamide]",9.9 nM
6,"NC(=O)c1cc(-c2ccc(F)cc2F)c2c(n1)CN(C(CO)c1ccccc1)CC2 (racemic) [Example 8-2B, (S) and (R)-4-(2,4-difluorophenyl)-7-(2-hydroxy-1-phenylethyl)-5,6,7,8-tetrahydro-1,7-naphthyridine-2-carboxamide]",11.5 nM
7,"CC1(C)CC(CN2CCc3c(-c4ccc(Cl)cc4F)cc(C(N)=O)nc3C2)CCO1 (single isomer, unassigned) [Example 1-5A, (R) or (S)-4-(4-chloro-2-fluorophenyl)-7-((2,2-dimethyltetrahydro-2H-pyran-4-yl)methyl)-5,6,7,8-tetrahydro-1,7-naphthyridine-2-carboxamide]",5.6 nM
8,"CC1(C)CC(CN2CCc3c(-c4ccc(Cl)cc4F)cc(C(N)=O)nc3C2)CCO1 (single isomer, unassigned) [Example 1-5B, (S) or (R)-4-(4-chloro-2-fluorophenyl)-7-((2,2-dimethyltetrahydro-2H-pyran-4-yl)methyl)-5,6,7,8-tetrahydro-1,7-naphthyridine-2-carboxamide]",7.5 nM
9,"CC1(C)CC(CN2CCc3c(-c4ccc(F)cc4F)cc(C(N)=O)nc3C2)CCO1 (single isomer, unassigned) [Example 1-11A, (R) or (S)-4-(2,4-difluorophenyl)-7-[(2,2-dimethyltetrahydro-2H-pyran-4-yl)methyl]-5,6,7,8-tetrahydro-1,7-naphthyridine-2-carboxamide]",30.1 nM
10,"CC1(C)CC(CN2CCc3c(-c4ccc(F)cc4F)cc(C(N)=O)nc3C2)CCO1 (single isomer, unassigned) [Example 1-11B, (S) or (R)-4-(2,4-difluorophenyl)-7-[(2,2-dimethyltetrahydro-2H-pyran-4-yl)methyl]-5,6,7,8-tetrahydro-1,7-naphthyridine-2-carboxamide]",45.2 nM
11,"NC(=O)c1cc(-c2ccc(F)cc2F)c2c(n1)CN(CC1CCOC(C3CCC3)C1)CC2 (single isomer, unassigned) [Example 1-14, 7-(((2S,4R) or (2R,4S)-2-cyclobutyltetrahydro-2H-pyran-4-yl)methyl)-4-(2,4-difluorophenyl)-5,6,7,8-tetrahydro-1,7-naphthyridine-2-carboxamide]",40.3 nM
12,"CC1c2nc(C(N)=O)cc(-c3ccc(F)cc3F)c2CCN1Cc1ccnn1C(C)C (single isomer, unassigned) [Example 1-15A, (S) or (R)-4-(2,4-difluorophenyl)-8-methyl-7-{[1-(1-methylethyl)-1H-pyrazol-5-yl]methyl}-5,6,7,8-tetrahydro-1,7-naphthyridine-2-carboxamide]",5.8 nM
13,"CC1c2nc(C(N)=O)cc(-c3ccc(F)cc3F)c2CCN1Cc1ccnn1C(C)C (single isomer, unassigned) [Example 1-15B, (R) or (S)-4-(2,4-difluorophenyl)-8-methyl-7-{[1-(1-methylethyl)-1H-pyrazol-5-yl]methyl}-5,6,7,8-tetrahydro-1,7-naphthyridine-2-carboxamide]",5.3 nM
14,"CC1c2nc(C(N)=O)cc(-c3ccc(F)cc3F)c2CCN1CC1CCOC(C)(C)C1 (single isomer, unassigned) [Example 1-18]",12.3 nM
15,"CC1c2nc(C(N)=O)cc(N3CCCCC3)c2CCN1Cc1ccnn1C(C)C (single isomer, unassigned) [Example 1-19, (S) or (R)-8-methyl-7-{[1-(1-methylethyl)-1H-pyrazol-5-yl]methyl}-4-piperidin-1-yl-5,6,7,8-tetrahydro-1,7-naphthyridine-2-carboxamide]",13.2 nM
16,"CC1(C)CCC(CN2CCc3c(-c4ccc(F)cc4F)cc(C(N)=O)nc3C2)CO1 (single isomer, unassigned) [Example 1-20, (S) or (R)-4-(2,4-difluorophenyl)-7-[(6,6-dimethyltetrahydro-2H-pyran-3-yl)methyl]-5,6,7,8-tetrahydro-1,7-naphthyridine-2-carboxamide]",24.4 nM
17,"CC1(C)CCC(CN2CCc3c(-c4ccc(Cl)cc4F)cc(C(N)=O)nc3C2)CO1 (single isomer, unassigned) [Example 1-21, (S) or (R)-4-(4-chloro-2-fluorophenyl)-7-[(6,6-dimethyltetrahydro-2H-pyran-3-yl)methyl]-5,6,7,8-tetrahydro-1,7-naphthyridine-2-carboxamide]",9.3 nM
18,"COC1CCN(c2cc(C(N)=O)nc3c2CCN(Cc2ccnn2C(C)C)C3C)CC1 (single isomer, unassigned) [Example 1-22, (S) or (R)-4-(4-methoxypiperidin-1-yl)-8-methyl-7-{[1-(1-methylethyl)-1H-pyrazol-5-yl]methyl}-5,6,7,8-tetrahydro-1,7-naphthyridine-2-carboxamide]",50.6 nM

# The next lines start with the values.
row,IC50,Structure (SMILES)
1,21.2 nM,"NC(=O)c1cc(-c2ccc(F)cc2)c2c(n1)CN(C(c1cccnc1)C(F)(F)F)CC2 (racemic) [Example 3-1A, (S) and (R)-4-(4-fluorophenyl)-7-(2,2,2-trifluoro-1-(pyridin-3-yl)ethyl)-5,6,7,8-tetrahydro-1,7-naphthyridine-2-carboxamide]"
2,22.3 nM,"NC(=O)c1cc(-c2ccc(F)cc2)c2c(n1)CN(C(c1cccnc1)C(F)(F)F)CC2 (racemic) [Example 3-1B, (S) and (R)-4-(4-fluorophenyl)-7-(2,2,2-trifluoro-1-(pyridin-3-yl)ethyl)-5,6,7,8-tetrahydro-1,7-naphthyridine-2-carboxamide]"
3,9.6 nM,"COc1cc(C(N2CCc3c(-c4cnn(C)c4)cc(C(N)=O)nc3C2)C(F)(F)F)ccn1 (racemic) [Example 3-2A, (S) and (R)-4-(1-methyl-1H-pyrazol-4-yl)-7-(2,2,2-trifluoro-1-(2-methoxypyridin-4-yl)ethyl)-5,6,7,8-tetrahydro-1,7-naphthyridine-2-carboxamide]"
4,11.4 nM,"COc1cc(C(N2CCc3c(-c4cnn(C)c4)cc(C(N)=O)nc3C2)C(F)(F)F)ccn1 (racemic) [Example 3-2B, (S) and (R)-4-(1-methyl-1H-pyrazol-4-yl)-7-(2,2,2-trifluoro-1-(2-methoxypyridin-4-yl)ethyl)-5,6,7,8-tetrahydro-1,7-naphthyridine-2-carboxamide]"
5,51.2 nM,"COc1cc(C(N2CCc3c(C4=CCC(C)CC4)cc(C(N)=O)nc3C2)C(F)(F)F)ccn1 (racemic) [Example 4-3A, 4-((S) and (R)-4-methylcyclohex-1-en-1-yl)-7-((S) and (R)-2,2,2-trifluoro-1-(2-methoxypyridin-4-yl)ethyl)-5,6,7,8-tetrahydro-1,7-naphthyridine-2-carboxamide]"
6,86.6 nM,"COc1cc(C(N2CCc3c(C4=CCC(C)CC4)cc(C(N)=O)nc3C2)C(F)(F)F)ccn1 (racemic) [Example 4-3B, 4-((S) and (R)-4-methylcyclohex-1-en-1-yl)-7-((S) and (R)-2,2,2-trifluoro-1-(2-methoxypyridin-4-yl)ethyl)-5,6,7,8-tetrahydro-1,7-naphthyridine-2-carboxamide]"
7,18.4 nM,"CC1CCCN(c2cc(C(N)=O)nc3c2CCN(Cc2ccnc(C(F)(F)F)c2)C3)C1 (single isomer, unassigned) [Example 5-5A, (S) or (R)-4-(3-methylpiperidin-1-yl)-7-((2-(trifluoromethyl)pyridin-4-yl)methyl)-5,6,7,8-tetrahydro-1,7-naphthyridine-2-carboxamide]"
8,12.9 nM,"CC1CCCN(c2cc(C(N)=O)nc3c2CCN(Cc2ccnc(C(F)(F)F)c2)C3)C1 (single isomer, unassigned) [Example 5-5B, (R) or (S)-4-(3-methylpiperidin-1-yl)-7-((2-(trifluoromethyl)pyridin-4-yl)methyl)-5,6,7,8-tetrahydro-1,7-naphthyridine-2-carboxamide]"
9,21.4 nM,"NC(=O)c1cc(N2CCCC(F)C2)c2c(n1)CN(Cc1ccnc(C(F)(F)F)c1)CC2 (single isomer, unassigned) [Example 5-6A, (S) or (R)-4-(3-fluoropiperidin-1-yl)-7-((2-(trifluoromethyl)pyridin-4-yl)methyl)-5,6,7,8-tetrahydro-1,7-naphthyridine-2-carboxamide]"
